Consider 22 compounds from patent US20240182445A1 (ONO PHARMACEUTICAL CO., LTD., priority 2019, published 2024).

Test [1] has as its target T1, human TREK-1 (Homo sapiens, UniProt O95069).
T1 construct: expressed in transfected cells
T1 sequence (O95069 1-426): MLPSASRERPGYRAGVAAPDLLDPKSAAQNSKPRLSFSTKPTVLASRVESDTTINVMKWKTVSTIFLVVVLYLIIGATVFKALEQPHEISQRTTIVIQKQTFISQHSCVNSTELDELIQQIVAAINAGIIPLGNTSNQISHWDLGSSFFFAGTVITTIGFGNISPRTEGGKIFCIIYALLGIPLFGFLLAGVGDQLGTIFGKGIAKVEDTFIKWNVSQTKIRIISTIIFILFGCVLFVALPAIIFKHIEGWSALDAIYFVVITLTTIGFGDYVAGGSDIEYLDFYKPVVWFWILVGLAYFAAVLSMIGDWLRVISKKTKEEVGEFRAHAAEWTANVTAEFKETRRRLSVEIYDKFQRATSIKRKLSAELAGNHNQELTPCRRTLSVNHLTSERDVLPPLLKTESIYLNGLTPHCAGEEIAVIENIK
The experiment in a line: TREK-1 Thallium (Tl+) flux assay, Method 1. Particulars: TREK-1 Thallium (Tl+) flux assay. Type of test: cell-based. The method, boiled down:
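Readout: Thallos fluorescence ratio, taken 25 s post-thallium relative to the pre-thallium baseline average, then converted to % inhibition. Cells were CHO-K1 stably expressing human TREK-1, dye-loaded and exposed to test compound (vehicle 0.3% DMSO) for 10 min prior to thallium stimulation.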

Test [2] deals with T1, human TREK-1. The test is described as follows: TREK-1 Manual Patch Clamp (hMPC) assay. Type of test: cell-based. Particulars: CHO-K1 cells stably expressing human TREK-1; whole-cell current at 0 mV. The method, then:
The term “patch clamp technique” herein refers to the “gold standard” technique for evaluating TREK channel pharmacology. The detail method is described below.
CHO-K1 cells stably expressing human TREK-1 or HEK293 cells stably expressing human TREK-2 are plated on glass coverslips, and voltage clamped in the whole-cell configuration of the patch clamp technique. Cells were voltage clamped at a holding potential of −80 mV and the stepped to 0 mV for 500 msec. The voltage was subsequently ramped from −120 mV to +80 mV over a 500 msec duration. This step-ramp protocol was repeated every 10 sec. The bathing solution contained the following: 135 mM NaCl, 5 mM KCl, 2 mM CaCl2, 1 mM MgCl2, 5 mM D-Glucose, 10 mM HEPES, 10 mM sucrose (adjusted to pH 7.4 with NaOH, 300 mosmol/kg H2O). The pipette solution contained the following: 135 mM KCl, 2 mM MgCl2, 1 mM EGTA, 10 mM HEPES, 2 mM Na2ATP (adjusted to pH 7.35 with KOH, 285 mosmol/kg H2O). Test compounds were dissolved into the bathing solution. Experiments on TREK-2 were terminated with the addition of the control compound (tert-butyl (3-((4-(benzyloxy)-2-methylphenyl)carbamoyl)-4-chlorophenyl)carbamate) so that maximal inhibition could be determined. The effects of test compound on the currents were calculated at 0 mV using the following equations:
For CHO cells expressing TREK-1 channel: % inhibition=(1-post current/pre current)×100
The compounds shown in Table 2 were prepared in an analogous manner with the appropriate starting materials, and evaluated in our TREK-1 Manual Patch Clamp (hMPC) assay.
(Patch clamp records ionic current or voltage across a cell membrane.)

Where [3] appears, read: values without footnote *12 are Method 1.
[4] abbreviates: no *^12 (Method 2) mark on these rows.

Take `CC(=O)N1CCC(n2ncc(Cl)c2C(=O)Nc2ncc(C#Cc3ccc(F)cc3)cc2C)[C@H](F)C1` (stereo in doubt) [Compound 10, 1-((3R,4R)-1-acetyl-3-fluoropiperidin-4-yl)-4-chloro-N-(5-((4-fluorophenyl)ethynyl)-3-methylpyridin-2-yl)-1H-pyrazole-5-carboxamide]: the concentration for half-maximal inhibition (IC50) – broadly, the concentration that gives 50% inhibition – turned out to be 110 nM on human TREK-1 [1] (setting [3]) and 60 nM on human TREK-1 [2].

Take `O=C(Nc1ncc(C#Cc2ccccc2)cc1F)c1c(Cl)cnn1C1CCN(C(=O)C2COCCO2)CC1` (stereo not drawn) [Compound 11, 1-(1-(1,4-dioxane-2-carbonyl)piperidin-4-yl)-4-chloro-N-(3-fluoro-5-(phenylethynyl)pyridin-2-yl)-1H-pyrazole-5-carboxamide]: the IC50 came to 120 nM against human TREK-1 [1] (setting [3]) and 100 nM against human TREK-1 [2].

`Cc1cc(C#Cc2ccccc2)cnc1NC(=O)c1c(Cl)cnn1CC1COCCO1` (stereo not drawn) [Compound 1, 1-((1,4-dioxan-2-yl)methyl)-4-chloro-N-(3-methyl-5-(phenylethynyl)pyridin-2-yl)-1H-pyrazole-5-carboxamide]: the half-inhibitory concentration (IC50) at human TREK-1 [1] (setting [3]) worked out at 670 nM; on human TREK-1 [2], 170 nM.

On to `CC(=O)N1CC(F)(Cn2ncc(Cl)c2C(=O)Nc2ncc(C#Cc3ccccc3)cc2C)C1` [Compound 215, 1-((1-acetyl-3-fluoroazetidin-3-yl)methyl)-4-chloro-N-(3-methyl-5-(phenylethynyl)pyridin-2-yl)-1H-pyrazole-5-carboxamide], for which the concentration for half-maximal inhibition (IC50) at human TREK-1 [1] (setting [4]) was found to be 330 nM; against human TREK-1 [2] it was 130 nM.

With `Cc1cc(C#Cc2ccccc2)cnc1NC(=O)c1c(Cl)cnn1CC1CCOCC1` [Compound 2, 4-chloro-N-(3-methyl-5-(phenylethynyl)pyridin-2-yl)-1-((tetrahydro-2H-pyran-4-yl)methyl)-1H-pyrazole-5-carboxamide], the figures for the concentration for half-maximal inhibition (IC50) against human TREK-1 [1] (setting [3]) and against human TREK-1 [2] were 200 nM and 60 nM, respectively.

As for `CC(=O)N1CCC(n2ncc(Cl)c2C(=O)Nc2ncc(C#Cc3ccc(F)cc3)cc2F)CC1` [Compound 7, 1-(1-acetylpiperidin-4-yl)-4-chloro-N-(3-fluoro-5-((4-fluorophenyl)ethynyl)pyridin-2-yl)-1H-pyrazole-5-carboxamide], the IC50 on human TREK-1 [1] (setting [3]) stood at 140 nM; on human TREK-1 [2] it was 30 nM.

Take `O=C(Nc1ncc(C#Cc2ccccc2)cc1F)c1c(Cl)cnn1C[C@H]1COCCO1` [Compound 4, (S)-1-((1,4-dioxan-2-yl)methyl)-4-chloro-N-(3-fluoro-5-(phenylethynyl)pyridin-2-yl)-1H-pyrazole-5-carboxamide]: the values for the half-inhibitory concentration (IC50) at human TREK-1 [1] (setting [3]) and against human TREK-1 [2] were 220 nM and 70 nM, respectively.

With `CC(=O)N1CCC(n2ncc(Cl)c2C(=O)Nc2ncc(C#Cc3ccccc3)cc2F)CC1` [Compound 6, 1-(1-acetylpiperidin-4-yl)-4-chloro-N-(3-fluoro-5-(phenylethynyl)pyridin-2-yl)-1H-pyrazole-5-carboxamide], the half-maximal inhibitory concentration (IC50) at human TREK-1 [1] (setting [3]) and at human TREK-1 [2] was 70 nM throughout.

Take `CC(=O)N1CCC(F)(Cn2ncc(Cl)c2C(=O)Nc2ncc(C#Cc3ccccc3)cc2C)CC1` [Compound 15, 1-((1-acetyl-4-fluoropiperidin-4-yl)methyl)-4-chloro-N-(3-methyl-5-(phenylethynyl)pyridin-2-yl)-1H-pyrazole-5-carboxamide]: the values for the IC50 against human TREK-1 [1] (setting [3]) and at human TREK-1 [2] were 400 nM and 290 nM, respectively.

`CC(=O)N[C@H]1CC[C@@H](n2ncc(Cl)c2C(=O)Nc2ncc(C#Cc3ccccc3)cc2F)CC1` [Compound 13, 1-(cis-4-acetamidocyclohexyl)-4-chloro-N-(3-fluoro-5-(phenylethynyl)pyridin-2-yl)-1H-pyrazole-5-carboxamide]: the half-inhibitory concentration (IC50) was determined as 120 nM at human TREK-1 [1] (setting [3]) and 60 nM on human TREK-1 [2].

Regarding `Cc1cc(C#Cc2ccccc2)cnc1NC(=O)c1c(Cl)cnn1[C@@H]1CCOC1` [Compound 3, (R)-4-chloro-N-(3-methyl-5-(phenylethynyl)pyridin-2-yl)-1-(tetrahydrofuran-3-yl)-1H-pyrazole-5-carboxamide], the half-maximal inhibitory concentration (IC50) stood at 360 nM on human TREK-1 [1] (setting [3]) and 530 nM at human TREK-1 [2].

Take `Cc1cc(C#Cc2ccccc2)cnc1NC(=O)c1c(Cl)cnn1C1CCn2nccc2C1` (stereo not drawn) [Compound 9, 4-chloro-N-(3-methyl-5-(phenylethynyl)pyridin-2-yl)-1-(4,5,6,7-tetrahydropyrazolo[1,5-a]pyridin-5-yl)-1H-pyrazole-5-carboxamide]: the IC50 against human TREK-1 [1] (setting [3]) was 140 nM; on human TREK-1 [2], 20 nM.

Turning to `CC(=O)N[C@H]1CC[C@@H](n2ncc(Cl)c2C(=O)Nc2ncc(C#Cc3ccc(F)cc3)cc2C)CC1` [Compound 14, 1-(cis-4-acetamidocyclohexyl)-4-chloro-N-(5-((4-fluorophenyl)ethynyl)-3-methylpyridin-2-yl)-1H-pyrazole-5-carboxamide], the IC50 at human TREK-1 [1] (setting [3]) was found to be 260 nM; on human TREK-1 [2], 2 nM.

For `CC(=O)N1CCC(n2ncc(Cl)c2C(=O)Nc2ncc(C#Cc3ccccc3)cc2C)CC1` [Compound 5, 1-(1-acetylpiperidin-4-yl)-4-chloro-N-(3-methyl-5-(phenylethynyl)pyridin-2-yl)-1H-pyrazole-5-carboxamide], the IC50 on human TREK-1 [1] (setting [3]) was 70 nM; against human TREK-1 [2] it was 60 nM.

On to `CC(=O)N1CCC(n2ncc(Cl)c2C(=O)Nc2ncc(C#Cc3ccc(F)cc3)cc2C)CC1` [Compound 8, 1-(1-acetylpiperidin-4-yl)-4-chloro-N-(5-((4-fluorophenyl)ethynyl)-3-methylpyridin-2-yl)-1H-pyrazole-5-carboxamide], for which the figures for the 50% inhibitory concentration (IC50) against human TREK-1 [1] (setting [3]) and against human TREK-1 [2] were 200 nM and 90 nM, respectively.

Regarding `CC(=O)N1CC(F)(Cn2ncc(Cl)c2C(=O)Nc2ncc(C#Cc3ccccc3)cc2F)C1` [Compound 140, 1-((1-acetyl-3-fluoroazetidin-3-yl)methyl)-4-chloro-N-(3-fluoro-5-(phenylethynyl)pyridin-2-yl)-1H-pyrazole-5-carboxamide], the IC50 was found to be 220 nM at human TREK-1 [1] (setting [3]) and 130 nM against human TREK-1 [2].

Consider `CC(=O)N1CCC([C@H](C)n2ncc(Cl)c2C(=O)Nc2ncc(C#Cc3ccccc3)cc2C)CC1` [Compound 16, (S)-1-(1-(1-acetylpiperidin-4-yl)ethyl)-4-chloro-N-(3-methyl-5-(phenylethynyl)pyridin-2-yl)-1H-pyrazole-5-carboxamide], for which the concentration for half-maximal inhibition (IC50) on human TREK-1 [1] (setting [3]) came out at 100 nM; against human TREK-1 [2], 160 nM.

For the compound `CC(C)C(=O)N[C@H]1CC[C@H](n2ncc(Cl)c2C(=O)Nc2ncc(C#Cc3ccccc3)cc2F)CC1` [Compound 117], the midpoint of inhibition against human TREK-1 [1] (setting [3]), the IC50, lay at 200 nM.

Compound `Cc1cc(C#Cc2ccccc2)cnc1NC(=O)c1c(Cl)cnn1CCN1CCN(C(=O)OC(C)(C)C)CC1` [Compound 323, tert-butyl 4-(2-(4-chloro-5-((3-methyl-5-(phenylethynyl)pyridin-2-yl)carbamoyl)-1H-pyrazol-1-yl)ethyl)piperazine-1-carboxylate] came in with an IC50 against human TREK-1 [1] (setting [4]) of 630 nM.

Regarding `CC(=O)N1CCC(CCn2ncc(Cl)c2C(=O)Nc2ncc(C#Cc3ccccc3F)cc2C)CC1` [Compound 196, 1-(2-(1-acetylpiperidin-4-yl)ethyl)-4-chloro-N-(5-((2-fluorophenyl)ethynyl)-3-methylpyridin-2-yl)-1H-pyrazole-5-carboxamide], at human TREK-1 [1] (setting [4]), half-maximal inhibition (IC50) was put at 300 nM.

Compound `Cc1cc(C#Cc2ccc(F)cc2)cnc1NC(=O)c1c(Cl)cnn1[C@H]1CCOC1` [Compound 322, (S)-4-chloro-N-(5-((4-fluorophenyl)ethynyl)-3-methylpyridin-2-yl)-1-(tetrahydrofuran-3-yl)-1H-pyrazole-5-carboxamide] gave a concentration for half-maximal inhibition (IC50) against human TREK-1 [1] (setting [4]) of 630 nM.

`CCC(=O)N1CCC(n2ncc(Cl)c2C(=O)Nc2ncc(C#Cc3ccccc3)cc2F)CC1` [Compound 34, 4-chloro-N-(3-fluoro-5-(phenylethynyl)pyridin-2-yl)-1-(1-propionylpiperidin-4-yl)-1H-pyrazole-5-carboxamide] registered an IC50 against human TREK-1 [1] (setting [3]) of 110 nM.
